# Values joined by “and” are separate entries in the source; they are usually repeats but may differ in a detail not shown here. Equal values may be shown once. Active and inactive are the calls of the source.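 How the source made its calls: active means viability signal falls, with AC50 at or below a set limit tied to the top tested dose; inconclusive means flat curve with moderate signal loss, or poor fit; inactive means the rest, including rising signal.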
# Tested on: HepG2 viability, CellTiter-Glo ATP luminescence, 72 h
# Test: HepG2 cell cytotoxicity, dose response, cytotoxicity control, CellTiter-Glo luminescence, dry powder, set 13 (AID 977619)
# Conditions: not given
row,Structure (SMILES),AC50
1,Cc1cnc(NC(=O)c2cc(S(=O)(=O)N3CCCC3)ccc2N2CCCC2)s1,> 60 µM (inactive)
2,Cc1csc(NC(=O)c2cc(S(=O)(=O)N(C)C)ccc2N2CCCC2)n1,> 60 µM (inactive)

# Tested on: not listed separately
# Test: as above
# Conditions: HepG2 viability, CellTiter-Glo ATP luminescence, 72 h; at 30 µM (top of the series)
row,Structure (SMILES),"activity change, negative = cytotoxicity"
1,Cc1cnc(NC(=O)c2cc(S(=O)(=O)N(C)C)ccc2N(C)C)s1,-8.52% (inactive)
2,Cc1ccccc1NC(=O)c1cc(S(=O)(=O)N(C)C)ccc1N1CCCC1,-8.5% (inactive)
3,Cc1ccc(NC(=O)c2cc(S(=O)(=O)N(C)C)ccc2N2CCCC2)cc1,-24% (inactive)
4,CN(C)CCCN(Cc1cc2ccccc2[nH]c1=O)C(=O)NCc1ccccc1,-20.2% (inactive)
5,CCN(CC)c1ccc(S(=O)(=O)N(C)C)cc1C(=O)Nc1ncc(C)s1,-14.5% (inactive)
6,CN(C)CCCN(Cc1cc2ccccc2[nH]c1=O)C(=O)Nc1ccccc1,-20.2% (inactive)
7,Cc1cnc(NC(=O)c2cc(S(=O)(=O)N3CCOCC3)ccc2N2CCCC2)s1,-27.5% (inactive)
8,Cc1cnc(NC(=O)c2cccc(S(=O)(=O)N(C)C)c2)s1,0.262% (inactive)
9,Cc1cnc(NC(=O)c2cc(S(=O)(=O)N(C)C)ccc2N2CCCC2)s1,-11% (inactive) and -24.4% (inactive)
10,CN(C)C(=O)c1cc(S(=O)(=O)N(C)C)ccc1N1CCCC1,-5.71% (inactive)
11,Cc1cnc(NC(=O)c2cc(S(=O)(=O)N(CC(C)C)CC(C)C)ccc2N2CCCC2)s1,2.42% (inactive)
12,COc1ccc2nc(NC(=O)c3cc(S(=O)(=O)N(C)C)ccc3N3CCCC3)sc2c1,-15% (inactive)
13,Cc1nc(NC(=O)c2cc(S(=O)(=O)N(C)C)ccc2N2CCCC2)n[nH]1,7.89% (inactive)
14,CN(C)S(=O)(=O)c1ccc(N2CCCC2)c(C(=O)Nc2cccnc2)c1,-8.96% (inactive)
15,CN(C)S(=O)(=O)c1ccc(N2CCCC2)c(C(=O)N2CCOCC2)c1,-23.2% (inactive)
16,Cc1cnc(NC(=O)c2cc(S(=O)(=O)N(C)C)ccc2C2CCCC2)s1,1.56% (inactive)
17,COc1cccc2sc(NC(=O)c3cc(S(=O)(=O)N(C)C)ccc3N3CCCC3)nc12,-0.843% (inactive)
18,COc1ccc2sc(NC(=O)c3cc(S(=O)(=O)N(C)C)ccc3N3CCCC3)nc2c1,12.7% (inactive)
19,CN(C)S(=O)(=O)c1ccc(N2CCCC2)c(C(=O)Nc2nc3ccccc3s2)c1,-28% (inactive)

row,Structure (SMILES),"activity change, negative = cytotoxicity"
1,COc1ccccc1NC(=O)c1cc(S(=O)(=O)N(C)C)ccc1N1CCCC1,-1.12% (inactive)
2,Cc1cnc(NC(=O)c2cc(S(=O)(=O)N3CCNCC3)ccc2N2CCCC2)s1,-16.2% (inactive)
3,Cc1cnc(NC(=O)c2cc(S(=O)(=O)N(C)C)ccc2N2CCCCC2)s1,-24.5% (inactive)
4,Cc1cnc(NC(=O)c2cc(S(=O)(=O)N(C)C)ccc2N2CCC2)s1,-16.2% (inactive)
5,Cc1cnc(NC(=O)c2cc(S(=O)(=O)N(C)C)ccc2N2CCNCC2)s1,2.09% (inactive)
6,Cc1cnc(NC(=O)c2cc(S(=O)(=O)N3CCCCC3)ccc2N2CCCC2)s1,-1.49% (inactive)
7,Cc1cnc(NC(=O)c2cc(S(=O)(=O)N(C)c3ccccc3)ccc2N2CCCC2)s1,2.13% (inactive)
8,CN(C)S(=O)(=O)c1ccc(N2CCCC2)c(C(=O)Nc2cccc(F)c2)c1,-10% (inactive)
9,CN(C)S(=O)(=O)c1ccc(N2CCCC2)c(C(=O)Nc2ccncc2)c1,-16.4% (inactive)
10,Cc1nnc(NC(=O)c2cc(S(=O)(=O)N(C)C)ccc2N2CCCC2)s1,-4.85% (inactive)
11,CN(C)S(=O)(=O)c1ccc(N2CCCC2)c(C(=O)Nc2ccccc2)c1,-16.8% (inactive)
12,CN(C)S(=O)(=O)c1ccc(N2CCCC2)c(C(=O)Nc2ccc(Br)cc2)c1,3.71% (inactive)
13,COc1ccc(NC(=O)c2cc(S(=O)(=O)N(C)C)ccc2N2CCCC2)cc1,-5.62% (inactive)
14,CN(C)S(=O)(=O)c1ccc(N2CCCC2)c(C(=O)NC2CCCCC2)c1,-17.5% (inactive)
15,CN(C)S(=O)(=O)c1ccc(N2CCCC2)c(C(=O)Nc2ccccc2F)c1,0.657% (inactive)
16,Cc1cnc(NC(=O)c2cc(S(=O)(=O)NCc3ccccc3)ccc2N2CCCC2)s1,-8.91% (inactive)
17,CN(C)S(=O)(=O)c1ccc(N2CCCC2)c(C(=O)Nc2ccccc2Cl)c1,0.028% (inactive)
18,CN(C)S(=O)(=O)c1ccc(N2CCCC2)c(C(=O)Nc2nccs2)c1,-14.2% (inactive)
19,CCN(CC)S(=O)(=O)c1ccc(N2CCCC2)c(C(=O)Nc2ncc(C)s2)c1,-6.49% (inactive)

# Reference: PubChem BioAssay AID977619 (Broad Institute, 2014)
